Measured values as given in patent US20250101436A1, “APTAMERS AND SMALL MOLECULE LIGANDS” (MeiraGTx UK II Limited, priority 2021, published 2025).

Tested on: N5-12G6 riboswitch
Test: Firefly luciferase assay, N5-12G6 riboswitch in HEK293 cells
Conditions: 12G6 riboswitch, HEK293

SMILES	regulation of luciferase expression (FIG. 4e)
CC1CNCCN1c1ccncc1NCc1ccc2nccnc2c1 (stereo not drawn) [compound 015, 4-(2-Methylpiperazin-1-yl)-N-(quinoxalin-6-ylmethyl)pyridin-3-amine]	regulate expression in a dose-dependent fashion
Clc1cc2nccnc2cc1CNc1cnccc1N1CCNCC1 [compound 013, N-((7-Chloroquinoxalin-6-yl)methyl)-4-(piperazin-1-yl)pyridin-3-amine]	regulate expression in a dose-dependent fashion

Same assay, conditions: Homo sapiens, HEK293, read-out: Fold induction 2 μM (HEK), 12G6 riboswitch, luciferase, HEK293, 2 μM

SMILES	fold induction at 2 µM
Fc1cc2nccnc2cc1CNc1cnccc1O[C@@H]1CCNC1 [compound 107, (R)—N-((7-fluoroquinoxalin-6-yl)methyl)-4-(pyrrolidin-3-yloxy)pyridin-3-amine]	48.7
Fc1cc2nccnc2cc1CNc1cncc(F)c1N1CCNCC1 [compound 082, 5-fluoro-N-((7-fluoroquinoxalin-6-yl)methyl)-4-(piperazin-1-yl)pyridin-3-amine]	24.7
N#Cc1ccc(N2CCNCC2)c(NCc2ccc3nccnc3c2)c1 [compound 048, 4-(piperazin-1-yl)-3-((quinoxalin-6-ylmethyl)amino)benzonitrile]	1
Fc1cc(CNc2cncc(Cl)c2O[C@@H]2CCNC2)cc2nccnc12 [compound 119, (R)-5-chloro-N-((8-fluoroquinoxalin-6-yl)methyl)-4-(pyrrolidin-3-yloxy)pyridin-3-amine]	32.5
Cc1cc(N2CCNCC2)c(NCc2ccc3nccnc3c2)cn1 [compound 118, 6-methyl-4-(piperazin-1-yl)-N-(quinoxalin-6-ylmethyl)pyridin-3-amine]	26.2
COc1cc(N2CCNCC2)c(NCc2ccc3nccnc3c2)cn1 [compound 116, 6-methoxy-4-(piperazin-1-yl)-N-(quinoxalin-6-ylmethyl)pyridin-3-amine]	50
Clc1cc2nccnc2cc1CNc1cnccc1N1CCCNCC1 [compound 091, N-((7-chloroquinoxalin-6-yl)methyl)-4-(1,4-diazepan-1-yl)pyridin-3-amine]	28.4
c1cc(O[C@@H]2CCNC2)c(NCc2ccc3nccnc3c2)cn1 [compound 021, (R)-4-(pyrrolidin-3-yloxy)-N-(quinoxalin-6-ylmethyl)pyridin-3-amine]	68.4
Clc1cc2nccnc2cc1CNc1cnccc1OC1CNC1 [compound 029, 4-(Azetidin-3-yloxy)-N-((7-chloroquinoxalin-6-yl)methyl)pyridin-3-amine]	41.3
Cc1cncc(NCc2ccc3nccnc3c2)c1N1CCCNCC1 [compound 094, 4-(1,4-diazepan-1-yl)-5-methyl-N-(quinoxalin-6-ylmethyl)pyridin-3-amine]	35.1
Clc1cc(CNc2cnccc2N2CCCNCC2)cc2nccnc12 [compound 089, N-((8-chloroquinoxalin-6-yl)methyl)-4-(1,4-diazepan-1-yl)pyridin-3-amine]	4.8

Same assay, conditions: Homo sapiens, HEK293, read-out: Fold induction 3.3 μM (HEK), 12G6 riboswitch, luciferase, HEK293, 3.3 μM

SMILES	fold induction at 3.3 µM
c1cc(O[C@@H]2CCNC2)c(NCc2ccc3nccnc3c2)cn1 [compound 021, (R)-4-(pyrrolidin-3-yloxy)-N-(quinoxalin-6-ylmethyl)pyridin-3-amine]	62

Same assay, conditions: Homo sapiens, HEK293, read-out: Fold induction 25 μM (HEK), 12G6 riboswitch, luciferase, HEK293, 25 μM

SMILES	fold induction at 25 µM
CC1CNCCN1c1ccncc1NCc1ccc2nccnc2c1 (stereo not drawn) [compound 015, 4-(2-Methylpiperazin-1-yl)-N-(quinoxalin-6-ylmethyl)pyridin-3-amine]	329
Clc1cc2nccnc2cc1CNc1cnccc1N1CCNCC1 [compound 013, N-((7-Chloroquinoxalin-6-yl)methyl)-4-(piperazin-1-yl)pyridin-3-amine]	314
c1cc(NC2CCNCC2)c(NCc2ccc3nccnc3c2)cn1 [compound 034, N^4-(piperidin-4-yl)-N^3-(quinoxalin-6-ylmethyl)pyridine-3,4-diamine]	53.2

Tested on: 12C6-1 riboswitch
Test: Firefly luciferase assay, Luci-12C6-1 riboswitch construct in transfected HEK 293 cells
Type: cell-based, human
Conditions: HEK 293 cells
From the text: Riboswitch construct: Aptamers were synthesized by Integrated DNA Technologies, Inc. The synthesized aptamer sequence, here referred to as aptamer sequence 12C6-1, contains a putative TPP aptamer sequence (AP008955.1/944373-944459; CP030117.1/954080-954166; CP023474.1/977011-977097) with C at 5′ end and a complementary G at 3′ end flanking the putative TPP aptamer sequence: […] […] (SEQ ID NO: 1). Golden Gate cloning strategy (New England Biolabs, NEB) was used to clone the synthesized aptamer sequences into an intron-exon-intron cassette to replace the guanine aptamer in the G17 riboswitch cassette (see SEQ ID NO: 15 recited in WO 2016/126747, which is incorporated herein in its entirety) to generate riboswitch construct Luci-12C6-1.

SMILES	activation of 12C6-1 and derivative riboswitches in regulating Luciferase expression (FIG. 4d)
O=C(O)CCC(=O)Nc1ccc2nccnc2c1 [compound 003]	bind 12C6-1 and activate derivative riboswitches
CN(C)CCNCc1ccc2nccnc2c1 [compound 011]	bind 12C6-1 and activate derivative riboswitches
C=CN(CCN(C)C)Cc1ccc2nccnc2c1 [compound 009]	bind 12C6-1 and activate derivative riboswitches
O=C(CNc1cnccc1N1CCNCC1)Nc1ccc2nccnc2c1 [compound 005]	bind 12C6-1 and activate derivative riboswitches
Cl.c1cc(N2CCNCC2)c(CNCc2ccc3nccnc3c2)cn1 [compound 008]	bind 12C6-1 and activate derivative riboswitches

Same assay, conditions: HEK 293 cells transfected with Luci-12C6-1

SMILES	luciferase expression response
CC(=C(CCO)SSCC1CCCO1)N(C=O)Cc1cnc(C)nc1N (stereo in doubt) [fursultiamine, reference compound]	induced luciferase gene expression in a dose-dependent manner
Cc1ncc(C[n+]2csc(CCO[P@](=O)(O)OP(=O)(O)O)c2C)c(N)n1 [TPP, Thiamine Pyrophosphate, reference compound]	dose-dependent response
